Measurements as given in patent US6504005B1, “Long-acting drugs and pharmaceutical compositions comprising them” (Yeda Research and Development Co. Ltd., priority 1996, dated 2003).
Read-outs that look alike come from different tables or passages of the source.

How the values were obtained:
Staphylococcus aureus = details: for Antimicrobial potency (%): relative to cephalexin control; for IC50: read-out: Concentration inhibiting 50% of bacterial growth (μM) (IC50)
Protocol: At the indicated time points, aliquots were withdrawn and analyzed for their potency to arrest growth of Staphylococcus aureus. Bacterial growth was then evaluated by increased turbidity measured spectroscopically at 700 nm.

[1] = system: experimental animal models; details: cited from earlier work
[2] = Solubility and appearance in aqueous buffer (pH 7.4)
[3] = format: physicochemical; details: pH 7.4, 37° C.
Protocol: (i.e. at physiological pH and body temperature). At the indicated time points aliquots were withdrawn for determining the biological potency relative to native insulin. Biological activities were evaluated by Insulin receptor tyrosine kinase activation (a cell free assay as described in Biological Procedures above, section (iv)) and by stimulation of lipogenesis in intact rat adipocytes as described in Biological Procedures, […].

STZ-diabetic rats = test: Single subcutaneous administration to STZ-diabetic rats (blood glucose, daily weight gain); details: single s.c. 1 mg; for Daily weight gain: followed seven days
Protocol: Diabetes was induced by a single intravenous injection of a freshly prepared solution of streptozotocin (55 mg/kg body weight) in 0.1M citrate buffer (pH 4.5) according to Meyerovitch et al., 1987.
Blood glucose levels and daily weight gains were followed over a period of seven days.
Group C (n=5) received the vehicle only (2.0 ml of 20% DMSO). Blood glucose levels were determined daily.

chymotrypsin and trypsin [4] = details: pH 7.4
Protocol: (§1) Chymotrypsin and trypsin (0.5% w/w, of each) was then added. At the indicated time points aliquots were withdrawn and subjected to analytical HPLC procedure.

[5] = molecular target: insulin receptor tyrosine kinase (Rattus norvegicus, UniProt P15127); test: Insulin receptor tyrosine kinase activity, [poly(Glu4Tyr)] phosphorylating assay (cell-free); details: for Biological potency (%): of native insulin potency, before incubation, [poly(Glu4Tyr)] phosphorylating assay
Protocol: Briefly, the liver was homogenized in the presence of proteinase inhibitors, solubilized with 1% Triton X-100, and centrifuged. The supernatant was allowed to pass through a wheat-germ agglutinin (WGA)-agarose column (Sigma). Adsorbed insulin receptor portion was eluted with 0.3M N-acetyl-D-glucose amine in 50 mM HEPES buffer, pH 7.4, containing 0.1% Triton X-100, 10% glycerol, and 0.15M NaCl.
(iv) Receptor Tyrosine Kinase Activity Measurement
In this assay insulin activates its own receptor to phosphorylate a random copolymer containing L-glutamic acid and L-tyrosine at 4:1 molar ratio [Poly(Glu4Tyr)]SEQ ID NO:1. The standard enzyme assay mixture (final volume 60 μl in 50 mM Hepes, pH 7.4-0.1% Triton X-100) contained WGA purified insulin receptor (5μg protein), 20 mM MgCl2, 2 mM MnCl2, 100 μM ATP and varying concentrations (from 1 ng/ml to 10 mg/ml) of insulin or insulin derivative. Following a 30 min preincubation at 22° C., the reaction was initiated by adding Poly(Glu4Tyr) SEQ ID NO:1 (final concentration 0.7 mg/ml), it proceeded for 20 min at 22° C. and was terminated by adding EDTA (20 mM). Phosphotyrosine content in PolyGlu4Tyr was quantitated by a radio-immunoassay procedure using specific monoclonal antibodies to phosphotyrosine (final dilution 1: 100,000) and ^125I-BSA-phosphotyrosine conjugate.

normal rats = test: Single intraperitoneal administration to normal rats, blood glucose levels; format: in vivo; details: single i.p. injection, 3 mg/rat
Protocol: This assay reflects the post-subcutaneous long-acting feature of insulin (or insulin derivatives) within the circulation. Normal rats received a single intraperitoneal injection of native insulin, NPH-insulin and (Fmoc)2-insulin (3 mg/rat), and their blood glucose levels were monitored over a period of three days.
Blood glucose levels were followed for two days.

[6] = background statement; cited from earlier work
chymotrypsin and trypsin [7] = test: Proteolysis by a mixture of chymotrypsin and trypsin (analytical HPLC); details: pH 7.4, 37° C., chymotrypsin and trypsin 0.5% w/w each
Protocol: as §1

insulin receptor tyrosine kinase, sequence (P15127 27-759 limits assumed): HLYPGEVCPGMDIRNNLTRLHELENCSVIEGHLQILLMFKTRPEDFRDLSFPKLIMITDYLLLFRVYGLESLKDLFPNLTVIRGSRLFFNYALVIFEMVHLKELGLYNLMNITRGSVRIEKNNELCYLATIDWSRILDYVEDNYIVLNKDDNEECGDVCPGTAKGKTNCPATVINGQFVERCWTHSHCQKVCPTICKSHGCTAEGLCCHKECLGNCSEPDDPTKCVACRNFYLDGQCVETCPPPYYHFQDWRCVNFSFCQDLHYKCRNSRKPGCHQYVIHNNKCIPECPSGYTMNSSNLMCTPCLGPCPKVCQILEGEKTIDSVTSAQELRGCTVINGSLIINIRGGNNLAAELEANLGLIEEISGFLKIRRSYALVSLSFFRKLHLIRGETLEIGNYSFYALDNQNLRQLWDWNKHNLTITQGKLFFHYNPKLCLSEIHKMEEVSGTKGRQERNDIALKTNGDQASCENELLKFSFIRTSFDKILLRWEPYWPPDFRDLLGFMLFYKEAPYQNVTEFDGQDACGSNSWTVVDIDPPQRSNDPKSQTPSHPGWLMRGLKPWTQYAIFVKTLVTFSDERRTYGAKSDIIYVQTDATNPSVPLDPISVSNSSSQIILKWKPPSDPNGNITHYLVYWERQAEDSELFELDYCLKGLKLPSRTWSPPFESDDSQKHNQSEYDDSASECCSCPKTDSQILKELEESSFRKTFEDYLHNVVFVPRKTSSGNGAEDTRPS
insulin receptor tyrosine kinase, sequence (P15127 764-1383 partner limits assumed): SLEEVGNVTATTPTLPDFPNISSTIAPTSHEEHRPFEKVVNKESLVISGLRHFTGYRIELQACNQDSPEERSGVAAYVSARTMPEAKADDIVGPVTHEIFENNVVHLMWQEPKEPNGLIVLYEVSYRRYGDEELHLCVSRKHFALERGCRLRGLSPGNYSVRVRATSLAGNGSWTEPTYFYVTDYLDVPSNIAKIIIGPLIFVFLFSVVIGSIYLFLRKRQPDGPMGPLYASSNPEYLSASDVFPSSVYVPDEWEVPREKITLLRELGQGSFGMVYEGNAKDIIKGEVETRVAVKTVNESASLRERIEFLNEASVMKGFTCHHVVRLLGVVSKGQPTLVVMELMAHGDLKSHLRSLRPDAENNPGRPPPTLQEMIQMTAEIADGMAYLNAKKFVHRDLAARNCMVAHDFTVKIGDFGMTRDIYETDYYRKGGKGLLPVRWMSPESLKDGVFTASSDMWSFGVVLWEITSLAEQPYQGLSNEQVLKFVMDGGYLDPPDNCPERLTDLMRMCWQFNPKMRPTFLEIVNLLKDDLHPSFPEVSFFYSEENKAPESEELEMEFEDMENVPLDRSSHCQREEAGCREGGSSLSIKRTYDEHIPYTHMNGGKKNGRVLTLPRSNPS

CC1=C(C(=O)O)N2C(=O)[C@@H](NC(=O)[C@H](NC(=O)OCC3c4ccccc4-c4ccccc43)c3ccccc3)[C@H]2SC1 [Fmoc-cephalexin, N-Fmoc-cephalexin]
Stability to hydrolysis by penicillinase (penicillinase): more stable to hydrolysis by penicillinase than the parent compound
Antimicrobial potency (%) (Staphylococcus aureus; after 1 day at pH 7.4, 37° C.): 10%
Antimicrobial potency (%) (Staphylococcus aureus; after 3 days at pH 7.4, 37° C.): 59%
Antimicrobial potency (%) (Staphylococcus aureus; after 6 days at pH 7.4, 37° C.): 100%
Antimicrobial potency (%) (Staphylococcus aureus; after 6 days at pH 7.4, 37° C., listed as N-Fmoc-cephalexin): about 50%
Antimicrobial potency (%) (Staphylococcus aureus; no incubation): ~6%
Stability upon incubation (Staphylococcus aureus; pH 7.4, 37° C.): significantly more stable
IC50 (Staphylococcus aureus; after 1 day at pH 7.4, 37° C.): 15 µM
IC50 (Staphylococcus aureus; after 3 days at pH 7.4, 37° C.): 9 µM
IC50 (Staphylococcus aureus; after 6 days at pH 7.4, 37° C.): 4.5 µM
IC50 (Staphylococcus aureus; no incubation): 23 µM

CC(C)C[C@H](NC(=O)OCC1c2ccccc2-c2ccccc21)C(=O)O [Fmoc-leucine]
Index of toxicity [1]: low index of toxicity

Gly^A1, Phe^B1, Lys^B29-N-(Fmoc)3-insulin
Appearance in aqueous buffer (pH 7.4) [2]: very cloudy
Solubility in aqueous buffer (pH 7.4, mg/ml): ˜0.2 mg/ml
Lag period of activation [3]: six day lag period
Delayed onset of antidiabetic action (STZ-diabetic rats; STZ rats): approximately two days
Duration of antidiabetic action (STZ-diabetic rats; STZ rats): four days
Daily weight gain (STZ-diabetic rats; STZ rats): 1.43±0.14 g/rat/day
Circulating glucose level lower than in native insulin group (STZ-diabetic rats; day two up to day six): 90 to 110 mg/dL
Resistance to proteolysis (chymotrypsin and trypsin [4]): highly resistant to proteolysis
Biological potency (%) ([5]; listed as N-(Fmoc)3-insulin Gly^A1, Lys^B29, Phe^B1): <1%
Biological potency (%) ([5]; listed as tri-N-Fmoc-insulin): < 1%

Native insulin: Human insulin, native hormone; parent drug and reference
Period of hypoglycemia / reduced blood glucose (normal rats): about 12 hours
Recovery from hypoglycemia, t½ (normal rats): 480 min
Appearance in aqueous buffer (pH 7.4) [2]: clear
Solubility in aqueous buffer (pH 7.4, mg/ml) [2]: ˜4 or higher mg/ml
Half-life in plasma [6]: 5 to 6 min
Daily weight gain (STZ-diabetic rats; STZ rats): 0.57±0.08 g/rat/day
Proteolysis t½ (chymotrypsin and trypsin [7]): 30 min
Biological potency following incubation (2 days, 37° C., pH 8.5) ([5]; after 2 days, 37° C., pH 8.5): 100
Biological potency (%) [5]: 100%
Concentration for half maximal effect ([5]; receptor tyrosine kinase assay): 20 ± 3 ng/mL
